Entries after “also recorded” stand apart in the source; their conditions may differ.
What was measured:
TARS = biological target: T1, TARS (Homo sapiens, UniProt P26639); conditions: calculated; see Williams, Mirando et al. 2013; cited from earlier work
T1 sequence (P26639 1-723): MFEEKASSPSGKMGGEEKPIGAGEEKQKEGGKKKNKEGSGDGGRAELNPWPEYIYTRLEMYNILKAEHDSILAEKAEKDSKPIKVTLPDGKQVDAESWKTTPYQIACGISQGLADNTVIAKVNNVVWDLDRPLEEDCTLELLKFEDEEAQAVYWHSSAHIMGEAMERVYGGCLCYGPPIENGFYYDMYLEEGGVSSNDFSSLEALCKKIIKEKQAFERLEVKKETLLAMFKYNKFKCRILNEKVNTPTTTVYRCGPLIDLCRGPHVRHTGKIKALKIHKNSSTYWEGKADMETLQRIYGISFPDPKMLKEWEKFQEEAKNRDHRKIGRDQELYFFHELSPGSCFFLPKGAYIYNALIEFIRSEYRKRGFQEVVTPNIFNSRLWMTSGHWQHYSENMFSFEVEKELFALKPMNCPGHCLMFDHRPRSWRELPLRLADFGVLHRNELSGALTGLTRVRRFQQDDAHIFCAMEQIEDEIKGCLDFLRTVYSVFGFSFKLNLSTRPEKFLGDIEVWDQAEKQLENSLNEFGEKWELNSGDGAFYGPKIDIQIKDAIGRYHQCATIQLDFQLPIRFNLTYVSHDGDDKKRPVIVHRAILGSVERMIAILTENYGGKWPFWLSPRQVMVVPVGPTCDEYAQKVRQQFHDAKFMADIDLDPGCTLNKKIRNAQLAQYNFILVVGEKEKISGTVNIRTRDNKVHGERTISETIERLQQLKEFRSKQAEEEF

SKOV-3 cells = experiment: HIF-1α stabilization in hypoxia (Western blot); assay type: cell-based
Experimental: After treatments, cells were harvested into sample buffer containing: 0.2 M Tris-HCL, 4% SDS, 4% β-mercaptoethanol, 40% glycerol, 4 μM pyronin Y. Extracts were sheared through a 24-gauge syringe. Samples were separated by 10% SDS-PAGE and transferred to nitrocellulose membrane and probed with rabbit polyclonal anti-TARS (1:500; Santa Cruz Biotechnology, Dallas, Tex.) or monoclonal anti-HIF-1α (BD Transduction Laboratories, [BD Biosciences, San Jose, Calif.]) (Lounsbury, Beddow et al. 1994). Secondary antibodies were HRP-goat-anti-mouse and HRP-goat-anti-rabbit (1:5,000; Jackson Laboratories, Bar Harbor, Me.).

HUVEC = experiment: Nascent protein synthesis assay (Click-iT metabolic labeling); assay type: cell-based, human; conditions: HUVECs; concentrations below 100 nM
Experimental: Nascent Protein Synthesis Assay—
Nascent protein synthesis was measured using Invitrogen Click-iT® metabolic labeling reagents [Dieterich, D. C., et al., Nat Protoc 2, 532-40 (2007)]. HUVEC cultures were pre-incubated in methionine-free Dulbecco's Modified Eagle Medium (D-MEM) high glucose (Invitrogen, Life Technologies, Grand Island, N.Y.) supplemented with 10% dialyzed fetal bovine serum (Invitrogen) containing the control or test compounds. Cycloheximide (50 μM) was used as a positive control. After 45 minutes, 25 μM Click-iT® AHA (L-azidohomoalanine) (Invitrogen) was added and cultures were incubated for 3 h. Cells were lysed with 1% SDS in 50 mM Tris-HCl with protease and phosphatase inhibitors: 1 mM […], 20 […], and 4 […]. Extracts were sonicated and protein concentration was determined by Bradford assay. Protein samples were labeled with biotin alkyne (PEG4 carboxamide-propargyl biotin) (Invitrogen) using the Click-iT® Protein Reaction Buffer Kit (Invitrogen) according to manufacturer's instructions. Equal concentrations of protein were run on a 10% SDS-PAGE and transferred to nitrocellulose membrane, incubated with streptavidin-HRP reagent (Pierce Thermo Scientific, Rockford, Ill.) followed by reaction with ECL reagent (Pierce) and exposed on film.

HUVECs [1] = experiment: Cell viability by Trypan Blue exclusion; assay type: cell-based, human; conditions: concentrations below 100 nM
Experimental: Cell viability was measured by counting cells in a hemacytometer with Trypan Blue exclusion (Sigma-Aldrich, St. Louis, Mo.) according to manufacturer's instructions. Measurements were normalized to untreated cells.

[2] = test system: von Hippel Lindau protein (VHL); experiment: Co-immunoprecipitation of TARS and VHL from transfected HEK293 cells; assay type: binding, human; conditions: biotinylated TARS construct precipitated with streptavidin beads, HEK cells
Experimental: Plasmids expressing biotinylatable TARS (pTARS) and myc-tagged VHL (pVHL) were transfected into HEK293 cells, and then extracts were prepared. Biotin-TARS was precipitated using streptavidin-coupled beads. Myc-VHL was precipitated using anti-myc antibodies. Precipitates were separated by SDS-PAGE, transferred and blots probed with anti-TARS antibody or anti-myc (VHL) antibody.

tRNAThr = experiment: Steady state aminoacylation assay; assay type: biochemical, E. coli or human; conditions: purified recombinant protein
Experimental: Steady State Aminoacylation Assay—
The aminoacylation activities of the TARS constructs were determined using modifications to established procedures (Francklyn et al 2008). Briefly, reaction mixtures consisted of 20 mM Tris-HCl pH 8.0, 100 mM KCl, 10 mM MgCl2, 1 mM dithiothreitol, 2 mM ATP, 2.5 U pyrophosphatase (Roche), 80 μM threonine, 20 μM [14C]-threonine, and 5 μM of E. coli or human tRNAThr. Reactions were initiated with the addition of 0.25-0.75 μM TARS and run at 37° C. Aliquots were taken at varying time points and spotted onto Whatmann 3MM paper filters pre-soaked in 5% trichloroacetic acid (TCA). Upon completion, the filters were washed 3 times in excess TCA, once in 95% ethanol, and dried under a heating lamp. The formation of Thr-tRNAThr was detected by scintillation counter and the activity determined by linear regression of threonyl-tRNAThr formed per active site per unit time.

HUVECs [3] = experiment: VEGF secretion into culture media (ELISA); assay type: cell-based, human; conditions: purified recombinant TARS added to HUVEC media for 24 h
Experimental: ELISA and Lactate Dehydrogenase Assays—
Culture media supernatants were tested for levels of secreted TARS protein using the Threonyl tRNA Synthetase (TARS) ELISA Kit (USCN Life Science, Wuhan, Hubei, PRC) according to manufacturer's instructions. Cell membrane integrity was confirmed using the lactate dehydrogenase assay CytoTox-ONE™ Homogeneous Membrane Integrity Assay (Promega, Madison, Wis.) according to manufacturer's instructions and reported as percent cytotoxicity relative to a lysis control. Levels of secreted VEGF were measured using the Human VEGF ELISA kit (Thermo Scientific) per manufacturer's instructions.

Chain of von Hippel Lindau protein (VHL) (P40337 54-213 limits assumed): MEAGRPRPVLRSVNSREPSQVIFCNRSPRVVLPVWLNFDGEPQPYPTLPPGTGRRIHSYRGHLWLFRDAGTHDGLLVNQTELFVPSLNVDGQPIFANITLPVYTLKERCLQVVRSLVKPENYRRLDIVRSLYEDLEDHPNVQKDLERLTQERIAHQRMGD

What does the source list for `C[C@@H]1C[C@H](C)C[C@H](C)[C@@H](O)CC(=O)O[C@H]([C@@H]2CC[C@H]2C(=O)O)C/C=C/C=C(/C#N)[C@H](O)[C@@H](C)C1` [BC194]?
Ki (TARS): 4.1 nM; HIF-1α transcription (SKOV-3 cells; SK-OV3 cells responding to hypoxia): no change in HIF-1α transcription; HIF-1α protein stabilization (SKOV-3 cells; hypoxia (2% O2), 6 h): diminished the levels of HIF-1α protein stabilization; also recorded: reduce HIF-1α stabilization; nascent protein synthesis (HUVEC): unaffected; also recorded: lack of effect; cell viability (HUVECs [1]): unaffected; also recorded: lack of effect

B1: TARS: N-terminal His6-tagged human threonyl-tRNA synthetase expressed and purified from E. coli; SEQ ID NO:2 (protein, listed as Homo sapiens)
chain: T1 sequence (P26639 1-723)
modifications: N-terminal His6 tag
For B1, which “co-precipitation of VHL” value [2] is on record?
Its value is “the VHL protein is co-precipitated”.

What about the aminoacylation activity (tRNAThr) of the same molecule?
The aminoacylation activity was “exhibits aminoacyl synthetase activity”.

What about the “secretion of VEGF” value (HUVECs [3]) of the same molecule?
Its value is “did not induce secretion of VEGF; also recorded: does not induce VEGF secretion”.

Reference: US10125358B2, “Methods and compounds for increasing threonyl-tRNA synthetase activity” (UNIVERSITY OF VERMONT AND STATE AGRICULTURAL COLLEGE, priority 2012, dated 2018)
